The record followed here is patent US6559140B2 (Abbott Laboratories, priority 2000, dated 2003).

By Ki is commonly meant a measure of affinity in units of concentration, obtained from inhibition or displacement. The low end stands for a stronger hold on the target, the high end for a looser hold on the target.

Chain of H3 receptor (Q9QYN8 1-397 isoform Q9QYN8-3): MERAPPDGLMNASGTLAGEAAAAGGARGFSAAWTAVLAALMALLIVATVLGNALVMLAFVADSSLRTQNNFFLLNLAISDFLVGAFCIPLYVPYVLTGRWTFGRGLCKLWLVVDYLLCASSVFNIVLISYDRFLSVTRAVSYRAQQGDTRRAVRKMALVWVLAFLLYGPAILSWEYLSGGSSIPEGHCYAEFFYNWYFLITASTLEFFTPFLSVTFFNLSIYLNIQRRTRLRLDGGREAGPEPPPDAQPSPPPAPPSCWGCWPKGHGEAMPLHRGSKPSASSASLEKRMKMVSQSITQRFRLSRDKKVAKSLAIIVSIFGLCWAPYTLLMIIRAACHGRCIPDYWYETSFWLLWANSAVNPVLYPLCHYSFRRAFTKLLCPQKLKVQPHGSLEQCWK

This assay concerns the target H3 receptor (Rattus norvegicus, UniProt Q9QYN8). The assay is described as follows: H3 receptor binding, (3H)-N-α-methylhistamine displacement in rat cortical membranes. The settings on record: male Sprague-Dawley rat brain cortical membranes, 30 minutes at 25° C., Cheng-Prusoff, geometric mean values of 2-10 separate experiments. As for the experimental part: Briefly, male Sprague-Dawley rat brain cortices were homogenized (1 g tissue/10 mL buffer) in 50 mM Tris-HCl/5 mM EDTA containing protease inhibitor cocktail (Calbiochem) using a polytron set at 20,500 rpm. Homogenates were centrifuged for 20 minutes at 40,000×g. The supernatant was decanted, and pellets were weighed. The pellet was resuspended by polytron homogenization in 40 mL 50 mM Tris-HCl/5 mM EDTA with protease inhibitors and centrifuged for 20 minutes at 40,000×g. […] Test compounds were added to the incubation mixtures prior to initiating the incubation assay by addition of the membranes. Thioperamide (3 μM) was used to determine nonspecific binding. Binding incubations were conducted for 30 minutes at 25° C. and terminated by addition of 2 mL of ice cold 50 mM Tris-HCl (H 7.7) and filtration through 0.3% polyethylenimine-soaked Unifilter plates (Packard). These filters were washed 4 additional times with 2 mL of ice-cold 50 mM Tris-HCl and dried for 1 hour. Radioactivity was determined using liquid scintillation counting techniques. Results were analyzed by Hill transformation and Ki values were determined using the Cheng-Prusoff equation.
Turning to `C[C@@H](NC(=O)c1ccc(C#N)cc1)C(=O)N1CCCN(CCCOc2ccc(-c3noc(CC4CCCC4)n3)c(F)c2)CC1` [Example 179, 4′-cyano-N-{(1R)-2-[4-(3-{4-[5-(cyclopentylmethyl)-1,2,4-oxadiazol-3-yl]-3-fluorophenoxy}propyl)-1,4-diazepan-1-yl]-1-methyl-2-oxoethyl}benzamide], the Ki worked out at 1.5 nM.
`C[C@@H](NC(=O)c1ccco1)C(=O)N1CCCN(CCCOc2ccc(-c3noc(-c4nccs4)n3)c(F)c2)CC1` [Example 149, N-{(1R)-2-[4-(3-{3-fluoro-4-[5-(1,3-thiazol-2-yl)-1,2,4-oxadiazol-3-yl]phenoxy}propyl)-1,4-diazepan-1-yl]-1-methyl-2-oxoethyl}-2-furamide] registered an inhibitory constant (Ki) of 6.24 nM.
As for `CC(C)CC(=O)N[C@H](C)C(=O)N1CCN(CCCOc2ccc(-c3noc(-c4ccccc4)n3)c(F)c2)CC1` [Example 165, N-[(1R)-2-(4-{3-[3-fluoro-4-(5-phenyl-1,2,4-oxadiazol-3-yl)phenoxy]propyl}-1-piperazinyl)-1-methyl-2-oxoethyl]-3-methylbutanamide], the figure is 11 nM; as for `O=C(c1ccc(OCCCN2CCCN(C(=O)C[C@@H]3CCCN3)CC2)cc1)C1CC1` [Example 124, Cyclopropyl(4-(3-(4-((2S)-pyrrolidinylacetyl)-1,4-diazepan-1-yl)propoxy)phenyl)methanone], 4.03 nM.
The molecule `CC(C)OCc1nc(-c2ccc(OCCCN3CCCN(C(=O)[C@@H](C)NC(=O)c4ccco4)CC3)cc2F)no1` [Example 143, N-{(1R)-2-[4-(3-{3-fluoro-4-[5-(isopropoxymethyl)-1,2,4-oxadiazol-3-yl]phenoxy}propyl)-1,4-diazepan-1-yl]-1-methyl-2-oxoethyl}-2-furamide] showed a Ki of 4 nM.
On to `CC(C)Oc1ccc(C(=O)N[C@H](C)C(=O)N2CCN(CCCOc3ccc(-c4noc(CC5CCCC5)n4)c(F)c3)CC2)cc1` [Example 184, N-{(1R)-2-[4-(3-{4-[5-(cyclopentylmethyl)-1,2,4-oxadiazol-3-yl]-3-fluorophenoxy}propyl)-1-piperazinyl]-1-methyl-2-oxoethyl}-4-isopropoxybenzamide], for which affinity was put at a Ki of 10.5 nM.
In turn, `C[C@@H](NC(=O)c1ccco1)C(=O)N1CCCN(CCCOc2ccc(-c3noc(-c4cccs4)n3)c(F)c2)CC1` [Example 148, N-{(1R)-2-[4-(3-{3-fluoro-4-[5-(2-thienyl)-1,2,4-oxadiazol-3-yl]phenoxy}propyl)-1,4-diazepan-1-yl]-1-methyl-2-oxoethyl}-2-furamide] came in with a Ki of 3.94 nM.
On to `CCCc1nc(-c2ccc(OCCCN3CCCN(C(=O)[C@@H](C)NC(=O)c4ccco4)CC3)cc2F)no1` [Example 141, N-[(1R)-2-(4-{3-[3-fluoro-4-(5-propyl-1,2,4-oxadiazol-3-yl)phenoxy]propyl}-1,4-diazepan-1-yl)-1-methyl-2-oxoethyl]-2-furamide], for which affinity was put at a Ki of 2.34 nM.
Next, `C[C@@H](NC(=O)c1ccc(Br)cc1)C(=O)N1CCN(CCCOc2ccc(C(=O)C3CC3)cc2)CC1` [Example 194, 4-bromo-N-[(1R)-2-(4-{3-[4-(cyclopropylcarbonyl)phenoxy]propyl}-1-piperazinyl)-1-methyl-2-oxoethyl]benzamide]: 1.18 nM; `C[C@@H](NC(=O)c1ccco1)C(=O)N1CCN(CCCOc2ccc(C(=O)C3CC3)cc2)CC1` [Example 126, N-((1R)-2-(4-(3-(4-(cyclopropylcarbonyl)phenoxy)propyl)-1-piperazinyl)-1-methyl-2-oxoethyl)-2-furamide]: 0.742 nM; `C[C@@H](N)C(=O)N1CCN(CCCOc2ccc(C(=O)C3CC3)cc2)CC1` [Example 138, (4-(3-(4-((2R)-2-aminopropanoyl)-1-piperazinyl)propoxy)phenyl)(cyclopropyl)methanone]: 0.996 nM.
Consider `C[C@H](N)C(=O)N1CCN(CCCOc2ccc(C(=O)C3CC3)cc2)CC1` [Example 1, (4-(3-(4-((2S)-2-aminopropanoyl)-1-piperazinyl)propoxy)phenyl)(cyclopropyl)methanone], for which the affinity, expressed as Ki, was 19.6 nM. Against the preceding molecule, the Ki is about 20-fold higher.
